Among the data in PubChem BioAssay AID743119 (The Scripps Research Institute Molecular Screening Center, 2013) are IC50 values, retold here.

The structures appear in SMILES notation. pIC50: −log10 of the molar value.

Test [1] concerns the target Acyl-protein thioesterase 1 (Homo sapiens) (UniProt O75608). Kind of test: LYPLA1 and LYPLA2 inhibition in intact cells, late-stage follow-up, HeLa cells, in situ treatment, fluorescence gel (AID 743119). Conditions: gel-based ABPP FP-Rh fluorescence, LYPLA1.
In test [2] the target is Acyl-protein thioesterase 2 (Homo sapiens) (UniProt O95372). The description is as above. Conditions: gel-based ABPP FP-Rh fluorescence, LYPLA2.
Chain of Acyl-protein thioesterase 2 (Homo sapiens) (O95372 whole entry, looked up): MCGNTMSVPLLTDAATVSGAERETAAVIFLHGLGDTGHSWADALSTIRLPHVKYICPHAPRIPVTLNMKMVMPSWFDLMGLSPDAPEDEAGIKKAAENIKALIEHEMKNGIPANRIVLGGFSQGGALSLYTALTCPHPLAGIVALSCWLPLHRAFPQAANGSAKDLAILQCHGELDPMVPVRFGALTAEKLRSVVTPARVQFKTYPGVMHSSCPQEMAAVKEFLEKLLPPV

Chain of Acyl-protein thioesterase 1 (Homo sapiens) (O75608 whole entry, looked up): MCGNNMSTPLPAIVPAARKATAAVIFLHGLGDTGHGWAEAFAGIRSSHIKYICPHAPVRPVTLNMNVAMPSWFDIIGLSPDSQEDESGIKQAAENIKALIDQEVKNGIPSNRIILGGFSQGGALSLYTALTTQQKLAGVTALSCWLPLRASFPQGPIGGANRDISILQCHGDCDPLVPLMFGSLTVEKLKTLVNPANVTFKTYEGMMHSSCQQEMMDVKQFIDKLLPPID

As usually defined, the pIC50 is −log10 of the IC50, conventionally taken in molar units. For `O=C(ON1C(=O)C2CN(C(=O)N3CCOCC3)CCN2C1=O)N1CCC(CCc2ccc(Cl)cc2)CC1` (configuration not stated), the pIC50 in test [1] was 7.06; in test [2] it was 6.84.
